The record followed here is patent US20210177542A1, “POWDER FOR CLEANING AN INTERNAL BODY PART AND/OR AN IMPLANT, METHOD FOR PRODUCING SAID TYPE OF POWDER AND SUITABLE USES” (FERTON HOLDING S.A., priority 2017, published 2021).

Holding throughout (type): physicochemical
A short description of data set [1]: Solubility in water at 20° C. The following applies: for Solubility in water: Table 2; for solubility: water, Table 1. The source says:
In this disclosure, substances are classified as water-soluble if more than 1 g of powder can be added per liter. […] The preferred powders have the following properties: […]

A further data set in a line: Density of the powder. The following applies: Table 1. The source says: In another embodiment of the present disclosure, it is provided for the powder to have a density between 0.2 and 3 g/cm^3, preferably between 0.2 and 2.4 g/ cm^3 and particularly preferably between 0.2 and 1.6 g/ cm^3.
Data set [2] can be described thus: Hygroscopicity (moisture absorption) of the powder types. The following applies: sensitivity to moisture during sterilizing. The source says: The powders of present disclosure are hygroscopic. According to a preferred embodiment, amorphous silica (silicon dioxide) is therefore added to the powders, especially in a volume ratio of 0.1 to 2.5%. This can reduce or even completely prevent absorption of moisture by the powder during sterilizing. The addition of amorphous silica results in hydrophobic coating for the powder particles, thus counteracting the moisture absorption of the powder particles during the sterilizing process. In less hygroscopic powders, addition of amorphous silica may be reduced or even completely omitted. The following powder types may be classified as hygroscopic: sodium hydrogen carbonate, glycine and erythritol.

Broadly, the solubility is the dissolved amount per volume that the medium holds. The low end stands for a poorly soluble substance, the high end for a readily soluble substance.

Molecules are shown by their SMILES. In brackets after ≈: the same amount, converted by molar mass.

In data set [1], `OC[C@@H](O)[C@@H](O)CO` [Erythritol, erythritol] showed a Solubility in water of 540 g/1 and a solubility of 540 mg/mL (≈ 4420 mM). Moreover, the Density in the data set “Density of the powder” came out at 1.45 g/mL. The Classification as hygroscopic entry in data set [2] is “hygroscopic”.
`NCC(=O)O` [Glycine, glycine] returned a Density in the data set “Density of the powder” of 1.61 g/mL. Moreover, the Classification as hygroscopic result in data set [2] is on record as “hygroscopic”.
In “Density of the powder”, `O=C([O-])O.[Na+]` [Sodium bicarbonate, sodium bicarbonate] registered a Density of 2.54 g/mL. In data set [2], the Classification as hygroscopic result was “hygroscopic”.
In data set [1], `OC[C@H]1O[C@H](O[C@H]2O[C@H](CO)[C@@H](O)[C@H](O)[C@H]2O)[C@H](O)[C@@H](O)[C@@H]1O` [Trehalose, trehalose] displayed a Solubility in water of 690 g/1 and a solubility of 690 mg/mL (≈ 2020 mM). This molecule also displayed a Density in “Density of the powder” of 1.80 g/mL. Besides, the Classification as hygroscopic result in data set [2] is recorded as “slightly less sensitive”.
